# Measurements published in article PMC11145187 (Proceedings of the National Academy of Sciences of the …, 2024).
# Residue numbers refer to the chain shown, from its start.
# Columns and labels:
# AHR [1] = test system: AHR; set-up: method as in PMID 33230523; conditions: human cells overexpressing either AHR version; cited from earlier work
# AHR [2] = test system: AHR; set-up: method as in PMID 33260776; conditions: 10 nM, H9 cells; two genes less expressed, 14 higher expressed; cited from earlier work
# AHR^V381 [3] = molecular target: T1, AHR^V381 (Homo sapiens, UniProt P35869); conditions: AHR^V381 cells, 4 h
# T1 sequence (P35869 11-848): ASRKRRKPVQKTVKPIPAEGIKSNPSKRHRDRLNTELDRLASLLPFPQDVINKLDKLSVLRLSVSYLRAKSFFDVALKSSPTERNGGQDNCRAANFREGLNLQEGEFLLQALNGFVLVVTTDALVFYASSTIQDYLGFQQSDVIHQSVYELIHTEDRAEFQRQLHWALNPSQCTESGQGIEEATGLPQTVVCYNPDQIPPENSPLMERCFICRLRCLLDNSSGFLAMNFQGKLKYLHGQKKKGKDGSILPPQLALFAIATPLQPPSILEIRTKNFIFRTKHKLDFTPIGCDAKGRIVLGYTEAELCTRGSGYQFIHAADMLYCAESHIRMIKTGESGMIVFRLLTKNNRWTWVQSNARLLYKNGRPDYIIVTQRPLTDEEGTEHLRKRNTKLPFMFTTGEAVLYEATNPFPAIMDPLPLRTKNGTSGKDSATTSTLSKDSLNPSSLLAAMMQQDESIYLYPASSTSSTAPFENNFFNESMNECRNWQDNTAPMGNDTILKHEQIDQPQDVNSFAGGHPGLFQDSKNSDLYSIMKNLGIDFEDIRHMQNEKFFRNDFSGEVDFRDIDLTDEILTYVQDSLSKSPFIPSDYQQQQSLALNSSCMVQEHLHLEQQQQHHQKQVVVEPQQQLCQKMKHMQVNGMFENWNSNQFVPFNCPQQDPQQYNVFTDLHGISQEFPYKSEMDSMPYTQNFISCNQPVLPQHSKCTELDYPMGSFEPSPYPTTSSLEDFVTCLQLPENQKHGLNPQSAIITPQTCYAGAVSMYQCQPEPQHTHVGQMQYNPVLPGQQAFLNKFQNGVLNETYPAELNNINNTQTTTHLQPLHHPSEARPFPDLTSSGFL
# Experimental: We incubated the cells with different concentrations of AHR ligands and measured CYP1A1 and CYP1B1 mRNA levels after 4 h.
# Error bars show SDs of four independent ligand treatments. qPCR were performed in triplicates.
# AHR, CYP1A1 and CYP1B1 relative quantification and ligand assays
# were purchased from Sigma-Aldrich, dissolved in DMSO (Invitrogen, D12345) to generate stocks 2000x
# the final concentrations used in the ligand assays and stored at -20°C.
# Four days prior to cell harvest, a single cell solution was prepared with Accutase and the cells were
# 3000 cells per well were seeded in 96 well plates
# and cultured under normal cell culture conditions for four days, with the last media change 24h before cell
# harvest. Ligands were added to a final concentration of 0.05% DMSO in the culture medium for four hours
# similar to other work (13-15). Cell harvest, reverse transcription and quantitative real-time PCR was […]
# for several samples also AHR was measured in a 20 µl multiplexed quantitative PCR reaction with 10 µl […]
# GUSB) or Thermo Fisher Scientific (CYP1B1, AHR), sequences: Suppl, Table S1). Quantitative PCR was […]
# 5 min, 45x (95 °C 5 s, 60 °C 15 s, 72 °C 15 s, plate read). […]
# Cq values were determined with Bio-Rad Laboratories’ CFX-Manager (version 3.1) and relative […]
# gene in untreated wild type cells. The data were plotted and analyzed using GraphPad Prism (version 8.4.3). […]
# AHR^V381 [4] = molecular target: T1, AHR^V381; experiment: RNA sequencing of treated versus mock-treated AHR^V381-expressing H9 cells; assay type: cell-based; set-up: they had not been changed in the editing process; endogenous in cells; host or cells: H9 human embryonic stem cells, a pool of 13 control clones that went through editing but remained wild type; conditions: 5 µM, 4 h
# Text: (§1) the manufacturer's instructions.
# (§2) manufacturer’s instructions.
# AHR^A381 = molecular target: T2, AHR^A381 (Homo sapiens, UniProt P35869, V381A); conditions: 5 µM, 4 h
# T2 sequence (P35869 11-848 V381A): T1 sequence (P35869 11-848) with V371A
# Text: as §1, §2
structure (smiles),measurement,setting,value
"Clc1cc2c(cc1Cl)Oc1cc(Cl)c(Cl)cc1O2 [2,3,7,8-Tetrachlorodibenzo-p-dioxin]",difference between the two AHR forms in induction of CYP1A1,AHR [1],no differences
same,number of the 117 differentially expressed genes affected by TCDD exposure,AHR [2],16 genes
c1ccc2c(c1)cc1ccc3cccc4ccc2c1c34 [Benzo(a)pyrene],concentration at which CYP1A1 and CYP1B1 mRNA levels are slightly induced,AHR^V381 [3],1000 nM
Cc1ccccc1N=Nc1ccc(NC(=O)c2ccnn2C)c(C)c1 [CH-223191],number of the 117 genes differing between AHR^A381 and AHR^V381 cells that change expression upon inhibitor treatment,AHR^V381 [4],none
same,target gene expression upon inhibitor treatment,AHR^V381 [4],"tends to be further reduced upon treatment with the inhibitor, albeit not significantly so"
same,number of the 117 genes differing between AHR^A381 and AHR^V381 cells that change expression upon inhibitor treatment,AHR^A381,20 genes
